Data reported in patent US7919133B2, “Substituted cyclopropanecarboxylic acid (3-methyl-cyclohexyl)amide as flavoring substance” (SYMRISE GmbH & Co. KG, priority 2007, dated 2011).

Experiments:
[1] = among substituted benzoic amides of WO 2006/099762; cited from earlier work
[2] = Tasting in the applicant's own investigations; type: in vivo; conditions: for Umami-properties: in vivo
[3] = Panel tasting in 0.5% American beef extract / beef broth as base (FIG. 1, scores 0 to 6); type: in vivo
From the text: In spider diagram attached as FIG. 1, American beef broth is exemplarily compared as a base, with firstly such a base with an addition of 5 ppm of mixture of cyclopropanecarboxylic acid-((1S,2S,5R)-2-isopropyl-5-methyl-cyclohexyl)-amide (11) and Cyclopropanecarboxylic acid-((1R,2R,5S)-2-isopropyl-5-methyl-cyclohexyl)-amide (12) (mixing ratio of 1:1) and secondly with such a base with an addition of 0.05 wt.-% of MSG.
With the aid of tasting by a panel of trained subjects, the taste of a 0.5% American beef extract as base (light grey line) was compared with the taste of firstly, such a base, to which 5 ppm of mixture consisting of cyclopropanecarboxylic acid-((1S,2S,5R)-2-isopropyl-5-methyl-cyclohexyl)amide (11) and cyclopropanecarboxylic acid-((1R,2R,5S)-2-isopropyl-5-methyl-cyclohexyl)amide (12) was added (solid line), and secondly such a base, to which 0.05 wt.-% of MSG was added (broken line).
The subjects rated the strength of the stated trend of taste by ranking of scores on a scale from 0 (no corresponding taste) to 6 (very strong corresponding taste). The average values of respective scores are illustrated.

[4] = as given in US 2004/0202760 and US 2004/0202619; cited from earlier work

## COC(=O)c1ccc(C(=O)NC2CC(C)CCC2C(C)C)cc1 (centres unmarked)
[1]
  cooling effect: strongest ascertained cooling effect

## CC(C)[C@@H]1CC[C@@H](C)C[C@@H]1NC(=O)C1CC1 [(11), Cyclopropanecarboxylic acid-((1S,2S,5R)-2-isopropyl-5-methyl-cyclohexyl)amide]
[2]
  Umami-properties: interesting and strong Umami-properties

## CC(C)[C@H]1CC[C@H](C)C[C@H]1NC(=O)C1CC1 [(12), Cyclopropanecarboxylic acid-((1R,2R,5S)-2-isopropyl-5-methyl-cyclohexyl)amide]
[2]
  Umami-properties: interesting and strong Umami-properties

## O=C(NC1CCCCC1)C1CC1 [Cyclopropanecarboxylic acid cyclohexyl amide]
[3]
  creating or enhancing of an Umami taste impression: no creating or enhancing of an Umami taste impression could be verified
[2]; tasting in own investigations
  taste rating: taste-neutral

## CC/C=C\CC/C=C/C(=O)NC1CC1 [N-cyclopropyl-E2,Z6-nonadiene amide]
[4]
  sensory impression: effect similar to MSG

## CCCCC/C=C\CC/C=C/C(=O)NCC [N-ethyl-E2,Z6-dodecadiene amide]
[4]
  sensory impression: effect similar to MSG

## CC/C=C\CC/C=C/C(=O)NCC [N-ethyl-E2,Z6-nonadiene amide]
[4]
  sensory impression: effect similar to MSG
